Assay [1] has as its system spore mixture of Aspergillus niger, Penicillin funculosum, Aureobasidium pullulans and Gliocladium virens. Kind of assay: Woodstaining fungal growth inhibition test. It counts as cell-based. Further details: key: 0: No fungal growth; 1: Fungal growth. As to conditions: filter paper immersed in 5 w/w % acetone solution, sprayed with spore mixture, 2% agar; Control 1. The text has this: In the solution, a No.2 filter paper of 1×1 cm in size was immersed, taken out and then air-dried.
Aureobasidium pullulans and […]

The test system of the next assay is Fomitopsis palustris. Kind of assay: Wood-decaying fungal growth inhibition test. It counts as cell-based. Further details: key: 0: No growth; 1: Fungal growth. The settings on record: filter paper immersed in 5 w/w % acetone solution, placed on Fomitopsis palustris on PDA medium; Control 1. The text has this: A No.2 filter paper of 1×1 cm in size was immersed in the solution, taken out and then air-dried. The filter was then placed on a Fomitopsis palustris which had been cultivated on a PDA medium in a petri dish and observed conditions of fungal growth for 8 weeks.

The subject of assay [2] is worker ants of Coptotermes formosanus. Kind of assay: Damage (ingestion) inhibition test (filter paper). Format: in vivo. Further details: key: 0: No damage; 1: Damage of ½ or less; 2: Damage of ½ to ¾; 3: Damage of ¾ with some remainder; 4: Complete damage. As to conditions: filter paper immersed in 1 w/w % solution in acetone (hispidin in methanol); 100 worker ants; Control 4. How it is done:
A 1 w/w % solution of each compound shown in Table 7 in acetone (except for hispidin which was prepared as a 1 w/w % solution in methanol) was prepared.
In this solution, a No.2 filter paper of 1×1 cm in size was immersed, taken out and then air-dried. It was then placed in a 11-K bottle in which 100 worker ants of Coptotermes formosanus had been kept, and the ingestion behavior was observed. Hispidin employed was a reagent produced by Calbiochem.

For `COC1=CC(=O)OC(CCc2ccc(OC)cc2)C1` (stereo not shown) [5,6,7,8-Tetrahydroyangonin], the “Fungal growth after 3 days” value in assay [1] turned out to be 0. Also, the “Fungal growth after 8 weeks” value with Fomitopsis palustris is 0. For the same molecule, the “Damage degree after 1 week” value in assay [2] came to 0.

For `COc1cc(/C=C/c2ccccc2)oc(=O)c1` [5,6-Dehydrokawain], the “Fungal growth after 3 days” value in assay [1] was 0. For the same molecule, in the assay on Fomitopsis palustris, the “Fungal growth after 8 weeks” value was 0. Further, the “Damage degree after 1 week” value in assay [2] is given as 1.

`COC1=CC(=O)O[C@@H](CCc2ccccc2)C1` [7,8-Dihydrokawain]: the “Fungal growth after 3 days” value in assay [1] came to 0. Moreover, the “Fungal growth after 8 weeks” value in the assay with Fomitopsis palustris is recorded as 0. Besides, the “Damage degree after 1 week” value in assay [2] was 0.

Turning to `COC1=CC(=O)O[C@@H](CCc2ccc3c(c2)OCO3)C1` [7,8-Dihydromethysticin], in assay [1], the “Fungal growth after 3 days” value is given as 0. The “Fungal growth after 8 weeks” value in the assay with Fomitopsis palustris stood at 0. For the same molecule, the “Damage degree after 1 week” value in assay [2] was determined as 0.

For the molecule `O=c1cc(O)cc(/C=C/c2ccc(O)c(O)c2)o1` [Hispidin, reference compound], the “Damage degree after 1 week” value in assay [2] worked out at 1.

Regarding `COC1=CC(=O)O[C@@H](/C=C/c2ccccc2)C1` [Kawain], the “Fungal growth after 3 days” value in assay [1] worked out at 0. In the assay with Fomitopsis palustris, the “Fungal growth after 8 weeks” value is reported as 0. Besides, the “Damage degree after 1 week” value in assay [2] worked out at 1.

In the case of `COC1=CC(=O)O[C@@H](/C=C/c2ccc3c(c2)OCO3)C1` [Methysticin], the “Fungal growth after 3 days” value in assay [1] is 0. In the assay on Fomitopsis palustris, the “Fungal growth after 8 weeks” value came out at 0. The “Damage degree after 1 week” value in assay [2] is recorded as 0.

Take `COc1ccc(/C=C/c2cc(OC)cc(=O)o2)cc1` [Yangonin]: in assay [1], the “Fungal growth after 3 days” value came to 0. The “Fungal growth after 8 weeks” value in the assay on Fomitopsis palustris was determined as 0. In addition, in assay [2], the “Damage degree after 1 week” value was determined as 1.

Values taken from US6827949B2, “Wood preservative” (Takeda Chemical Industries, Ltd., priority 2001, dated 2004).
